The text below walks through data of ChEMBL document CHEMBL1123997, “Modeling of beta-adrenoceptors based on molecular electrostatic potential studies of agonists and antagonists” (J Med Chem, 1988).

For assay [1], the target named is T1, Adrenergic receptor beta (Homo sapiens) (UniProt P08588+P07550+P13945). Conditions: filed as antagonist.
For assay [2], the target named is T1, Adrenergic receptor beta (Homo sapiens).
Assay [3] shares this target. This is another data set of the same source.
For assay [4] the target is unchanged. The following applies: filed as antagonist. This is another data set of the same source.
Assay [5] shares this target. The following applies: filed as agonist.
Description: Tested for intrinsic sympathomimetic activity (ISA); Agonist

Take `CC(C)(C)NCC(O)COc1cccc2c1CCCC2=O` (centres undefined): in assay [1], the ISA entry was “Antagonist”.

For the molecule `Cc1cc2c(OCC(O)CNC(C)C)cccc2[nH]1` (centres undefined), the ISA entry in assay [2] was “Partial agonist”.

`CCc1cccc2cc(C(O)CNC(C)(C)C)oc12` (centres undefined): in assay [3], the ISA entry is “Partial agonist”.

In the case of `COCCOc1ccc(OC[C@@H](O)CNC(C)C)cc1`, in assay [3], the ISA entry is “Partial agonist”.

Turning to `COc1ccc(CCNC[C@H](O)COc2ccc(-c3nc(C(C)=O)c[nH]3)cc2)cc1OC`, in assay [2], the ISA entry is “Partial agonist”.

For `CC(C)(C)NCC(O)COc1cccc2c1CC(O)C(O)C2` (centres undefined), in assay [4], the ISA entry is “Antagonist”.

As to `COc1ccc(CCNC[C@H](O)COc2ccc(Cc3nc(C(C)=O)c[nH]3)cc2)cc1OC`, the ISA result in assay [4] is “Antagonist”.

Take `CC(C)(C)NCC(O)COc1cccc2c1SCCC2` (centres undefined): in assay [4], the ISA entry is “Antagonist”.

For the molecule `CC(C)(C)NC[C@H](O)COc1cccc2c1CC1(CCCCC1)C2=O`, the ISA entry in assay [4] is “Antagonist”.

Consider `CC(C)(C)NCC(O)COc1ccccc1C#N` (centres undefined), for which, in assay [2], the ISA result was “Partial agonist”.

Take `CCN(CC)C(=O)Nc1ccc(OCC(O)CNC(C)(C)C)c(C(C)=O)c1` (centres undefined): the ISA result in assay [2] is “Partial agonist”.

As for `CC(C)NCC(O)c1ccc(Cl)c(Cl)c1` (centres undefined), the ISA entry in assay [3] is “Partial agonist”.

For `NC[C@H](O)c1ccc(O)c(O)c1`, the ISA result in assay [5] was “Agonist”.

For the molecule `CC(C)NCC(O)COc1cccc2[nH]ccc12` (centres undefined), the ISA entry in assay [3] is “Partial agonist”.
